Earlier results as cited in US20230380420A1, “HARD SURFACE DISINFECTING COMPOSITION” (priority 2020, published 2023).

Settings: alcohols; room temperature

SMILES | ~δp [MPa^1/2]
CC(C)CCCCCO [isooctyl alcohol] | ~7.3
CCCC(C)O (stereo not drawn) [2-pentanol] | ~6.4
CCCO [1-propanol] | ~6.8
CCCCCCCCCCO [1-decanol] | ~10.0
CCCCO [1-butanol] | ~5.7
CCCCCCCC/C=C\CCCCCCCCO [oleyl alcohol] | ~2.6
CC(C)O [2-propanol] | ~6.1
CO [methanol] | ~12.3
CC(C)(C)O [t-butyl alcohol] | ~5.1
CCCCC(CC)CO (stereo not drawn) [2-ethyl-hexanol] | ~3.3
CCCCCCCCO [octanol] | ~3.3
OCC(Cl)CCl (stereo not drawn) [2,3-dichloropropanol] | ~9.2
CCC(CC)CO [2-ethyl-1-butanol] | ~4.3
C=CCO [2-propenol] | ~10.8
OC1C=CCC1 (stereo not drawn) [2-cyclopentenyl alcohol] | ~7.6
OCc1ccc(Cl)cc1 [4-chlorobenzyl alcohol] | ~7.5
OC1CCCCC1 [cyclohexanol] | ~4.1
CCCCCCCCC(C)O (stereo not drawn) [2-decanol] | ~10.0
CCO [ethanol] | ~8.8
CCCCCO [1-pentanol] | ~4.5

Same assay, conditions: glycol ethers; room temperature

SMILES | ~δp [MPa^1/2]
CC(C)COCC(C)O (stereo not drawn) [propylene glycol monoisobutyl ether] | ~4.7
CC(O)COC(C)C (stereo not drawn) [propylene glycol monoisopropyl ether] | ~6.1
COCCO [ethylene glycol monomethyl ether] | ~9.2
OCCOc1ccccc1 [ethylene glycol monophenyl ether] | ~5.7
CCCCOCC(C)O (stereo not drawn) [propylene glycol monobutyl ether] | ~4.5
CCOCCOCCO [diethylene glycol monoethyl ether] | ~9.2
COCCOCCO [diethylene glycol monomethyl ether] | ~7.8
CCCOCCO [ethylene glycol monopropyl ether] | ~8.2
COCC(C)O (stereo not drawn) [propylene glycol monomethyl ether] | ~6.3
CC(C)OCCO [ethylene glycol monoisopropyl ether] | ~8.2
CCCCOCCOCCO [diethylene glycol mono-n-butyl ether] | ~7.0
CCOCC(C)O (stereo not drawn) [propylene glycol monoethyl ether] | ~6.5
CCOCCO [ethylene glycol monoethyl ether] | ~9.2
CCCCOCCO [ethylene glycol monobutyl ether] | ~5.1
CCCCCCCC/C=C\CCCCCCCCOCCOCCOCCO [triethylene glycol monooleyl ether] | ~3.1
CCCOCC(C)O (stereo not drawn) [propylene glycol monopropyl ether] | ~5.6
OCCOCc1ccccc1 [ethylene glycol monobenzyl ether] | ~5.9
COCCOCCOCCO [triethylene glycol monomethyl ether] | ~7.6

Same assay, conditions: room temperature

SMILES | δp
O [water] | ≈ 16.0 MPa^1/2
